Series [1] has as its system neural stem cells (clone C17.2). In words: Cell number and growth of neural stem cells under mimosine and GCV. The class given is cell-based, murine. An excerpt: Medium was changed every third day. […] Medium was replaced on day 4 and day 6.
In contrast, untreated neural stem cell cultures continued proliferating over the same period, reaching a density of 1.7×10^6 cells/ml on day 10. […] Re-growth of neural stem cells occurred at a faster rate if cells were additionally rinsed and split 1:8 after removal of drug(s) on day 10.

Series [2] shares this test system. In words: Cytopathic effect and morphology of neural stem cells (drug treatment, virus infection). Particulars: for cell morphology: cells below confluency, mimosine 400 μM. The protocol:
Neural stem cells were grown in 24-well plates until they reached confluency (approximately 400,000 cells/well). Medium was changed every third day. […] Medium was replaced on day 4 and day 6. […] Cell culture medium was changed again on days 10, 13 and 17. […] Cell morphology and cells/well for different treatment conditions were determined in duplicate on days 0, 4, 7, 10, 13, and 17. The number of cells/well was determined using a Coulter Counter (Coulter Electronics, Hialeah, Fla.).
Virus titers in the conditioned medium—and in some experiments also in cell lysates—were determined by standard plaque tests on Vero cells. […] Also, the influence of the expression of viral proteins VP 16 and ICP6 (RR), mediated by infection with amplicon vectors, on the replication of hrR3 mutant virus was determined at different time points after infection of neural stem cells. Stocks of helper-free packaged amplicons HSV 16. HSVRR and HSVIacZ (100 μl each) were added to the wells on day 7, 10, or 13. Three days later titers of hrR3 in the medium were determined by plaque assay.
The genotype of hrR3 is RR- LacZ^+ [Goldstein and Weller, Virology 166: 141-51, 1988] with the lacZ gene under control of the ICP6 early viral promoter. RRP450 was derived from hrR3 by replacement of the lacZ gene with the cytochrome P450 gene [Chase et al., Nat Biotechnol 16: 444-8, 1998].

A further series has as its system hrR3. Description: Dexamethasone treatment of hrR3-infected, mimosine/GCV-treated neural stem cell cultures. The class given is cell-based, HSV-1. The following applies: dexamethasone 10^-7 M on day 10; detection level.

`Nc1nc(O)c2ncn(COC(CO)CO)c2n1` [GCV, ganciclovir]: in series [1] (5 μM added from day 6, compared to mimosine alone), the cell viability result is “did not significantly affect cell viability”. The cell morphology entry in series [2] was “did not change this morphology”.
Consider `NC(Cn1ccc(=O)c(O)c1)C(=O)O` (stereo not drawn) [mimosine], for which the “treatment time at which block of cell division and viral replication is reversible” value in series [1] is not below 13 days. In addition, the Cells/well entry in series [1] (400 μM, 4 and 7 days after beginning of treatment) was “around 400,000 cells”. In addition, the “cell number of infected cultures kept on treatment” value in series [1] (infected MOI 1 day 7, day 13 and 17) is on record as “remained at the same cell number”. The “growth after removal of drug” value in series [1] (removed on day 10) is “growth of neural stem cells resumed”. The “virally induced CPE in presence of drug” value in series [2] is recorded as “prevented virally induced CPE”. The cell morphology entry in series [2] is “developed extensions and a more neuronal shape”. Besides, the CPE entry is recorded as “some cytopathic effect” in series [2] (day 13, infected day 7, split 1:8 into drug-free media day 10); “no CPE” in series [2] (day 13, infected, not split); “extensive CPE” in series [2] (day 17, infected and split); “some CPE” in series [2] (day 17, infected, non-split). Moreover, the “cytopathic effect associated with virus replication” value in series [2] (infection at MOI of 10) was “typical cytopathic effect”. Moreover, the “cytopathic effect of drug alone” value in series [2] (uninfected) is recorded as “did not induce a significant cytopathic effect”.
Take `C[C@@H]1C[C@H]2[C@@H]3CCC4=CC(=O)C=C[C@]4(C)[C@@]3(F)[C@@H](O)C[C@]2(C)[C@@]1(O)C(=O)CO` [dexamethasone]: the “virus titers in the media and cell lysates” value in the series on hrR3 is < 10 pfu/100,000 cells.

Values taken from patent publication US7655224B2, “Neural stem cells and use thereof for brain tumor therapy” (priority 1998, dated 2010).
